Experimental data from US8642834B2, “Methods for the identification of agents that inhibit mesenchymal-like tumor cells or their formation” (OSI Pharmaceuticals, LLC, priority 2009, dated 2014).

How the values were obtained:
[1] = test system: CFPAC-1 cells; experiment: MET/EMT reversion experiment (ligand withdrawal); type: cell-based, human; details: ligand 14 days, then removed; morphology and E-cadherin/vimentin immunoblot
Experimental: Cells were cultured in complete medium with and without ligand for 14 days, during which time the media and ligand treatment was replaced every 3-4 days. 3 Days prior to the first time point (Day 14), cells were trypsinised, counted and seeded into plastic 35 mm dishes at appropriate seeding densities for the first 3 collection time points. 3 Days prior to the last of the 3 collection time points, the procedure was repeated for the second 3 collection time points, and so on until all time points were collected. Ligand was removed from all cultures at Day 14. At the time of harvest, cells were harvested as described in the western blotting section above. All samples were micro-centrifuged and stored at −80° C. until the end of the experiment, at which time all samples were processed for western blotting.

[2] = test system: CFPAC-1 cells; experiment: Induction of EMT by growth factors and cytokines, E-cadherin and vimentin immunoblotting; type: cell-based, human; details: CFPAC-1 cells treated 7 days with ligand
Experimental: The CFPAC1 cell line was cultured in DMEM media (Gibco #11960) supplemented with 10% FBS (Sigma), 2 mM L Glutamine (Gibco), at 37° C., 5% CO2. For 7 day treatments, cells were seeded on tissue culture plastic in complete growth media and allowed to attach overnight at cell densities that would provide approximately 60-80% confluence at end of experiment. Ligand and/or inhibitor was added the following day (Day 0) in complete growth media and incubated at 37° C., 5% CO2. Ligand source and concentrations used are as follows: [1] From R&D systems, SDF-1α (stromal derived factor-1 alpha) at 100 ng/ml, TRANCE (TNF-related activation induced cytokine) at 50 ng/ml, FGF1 (fibroblast growth factor acidic) at 10 ng/ml, FGF2 (fibroblast growth factor basic) at 10 ng/ml, BMP4 (bone morphogenetic protein 4) at 100 ng/ml, BMP7 (bone morphogenetic protein 7) at 100 ng/ml, IGF2 (insulin-like growth factor 2) at 100 ng/ml, OSM (Oncostatin M) at 100 ng/ml, NRG1 (Neuregulin-1) at 50 ng/ml, PDGFaa (Platelet derived growth factor a) at 50 ng/ml, PDGFbb (platelet derive growth factor b) at 30 ng/ml, Ang2 (Angiopoeitin 2) at 400 ng/ml, amphiregulin at 100 ng/ml, HMGB 1 (Human high-mobility group box 1 protein) at 50 ng/ml; [2] From Genscript, LIF (Leukemia inhibitory factor) at 20 ng/ml, GM-CSF (Granulocyte macrophage colony stimulating factor) at 25 ng/ml, M-CSF (Macrophage colony stimulating factor) at 50 ng/ml; [3] From Anaspec, PAR1 (Protease activated receptor 1 agonist) at 100 μM; PAR2 (Protease activated receptor 2 agonist; peptide SLIGKV-NH2, Cat. No. 60217-1) at 100 μM; PAR4 (Protease activated receptor […] agonist; peptide AYPGKF-NH2, Cat. No. 60218-1) at 100 μM; [4] From Peprotech, HGF (Hepatocyte Growth Factor) at 100 ng/ml; IL-31 (Interleukin-31) at 50 ng/ml, IL-33 (Interleukin-33) at 50 ng/ml, IL1-a (Interleukin-1 alpha) at 10 ng/ml, CTGF (Connective tissue growth factor) at 20 ng/ml, WISP1 (Wnt-1 inducible signaling pathway protein) at 20 ng/ml, PTHrP ([…] hormone-related protein) at 50 ng/ml, MCP1 (monocyte chemotactic protein-1) at 50 ng/ml; and [5] from Sigma, Fulvestrant at 1 μM. Fresh medium containing ligand and/or inhibitor was added 3-4 days after initial dose, and at Day 7 cells were harvested for western blot analysis.
Cells were harvested by washing once with PBS, and lysing on ice for 10 minutes with scraping (using a Cell Lifter, Corning Inc. #3008) in ice cold RIPA buffer (Sigma R0278) containing Protease inhibitor (Sigma P8340), Phosphatase inhibitors (Sigma P2850, P5726) and 200 μM Sodium Vanadate. Supernatents were micro-centrifuged at max speed, 4° C. for 10 minutes. Protein content was quantitated using the BCA method (Pierce #23225) and samples were normalized to total protein in Laemli buffer and heated at 100° C. for 10 minutes. SDS PAGE was run using a Bis-Tris gel system (Invitrogen NuPAGE) with MOPS buffer (Invitrogen NP0001), transferred onto nitrocellulose using the iBLOT system (Invitrogen) and blocked in PBS-T (0.1% Tween 20), 5% non-fat milk or BSA in guidance with primary Ab supplier requirements. All primary antibodies were incubated overnight at 4° C. in PBS-T (0.1% Tween 20) in either 5% non-fat milk or BSA, diluted to the following working dilutions: anti E Cadherin (Santa Cruz #sc-21791) 1:500 dilution; anti Vimentin (BD Biosciences #550513) 1:2000 dilution;); anti GAPDH HRP conjugate (Santa Cruz sc-25778) 1:1000 dilution; anti β-Actin (Sigma, A5441) 1:10,000 dilution. […]

HGF: Hepatocyte Growth Factor from Peprotech, used at 100 ng/ml
Reversal of EMT upon withdrawal of ligand [1]: can be reversed | Induction of EMT (E-cadherin down, vimentin up) [2]: most complete EMT
